In patent publication US20090175845A1, “METHODS FOR IDENTIFYING COMPOUNDS THAT MODULATE PHB DOMAIN PROTEIN ACTIVITY AND COMPOSITIONS THEREOF” (THE TRUSTEES OF COLUMBIA UNIVERSITY IN THE CITY OF NEW YORK, priority 2005, published 2009):

Legend:
MEC-2 = test: Detergent-resistant membrane (DRM) fractionation by density gradient centrifugation; format: cell-based, C. elegans; settings: limited cholesterol depletion with MBCD, FIG. 1D
Method: (§1) Preparation of Detergent-Resistant Membrane Domains and Cholesterol Measurement—For preparation of low-density Triton® X-100—insoluble membrane domains (DRM; LDF) HEK 293T cells were homogenized by 20 strokes in a Dounce homogenizer in 1 ml of MBS buffer (250 mM NaCl, 5 mM EDTA, 10 mM Tris, pH 7.4, proteinase inhibitors) in the presence of 1% Triton® X-100 and centrifuged for ten minutes at 3,000×g at 4° C. The lysates were incubated for 45 minutes on ice in the presence of 1% Triton® X-100, adjusted to 45% sucrose and pipetted at the bottom of an ultracentrifuge tube. Samples were then overlaid with a sucrose step gradient (2 ml of 30% sucrose and 1 ml of 5% sucrose in MBS) as described previously {Huber, 2003 #205}. Gradients were centrifuged for 20 hours at 200,000×g at 4° C. in a swing-out rotor, and seven fractions ([…] each) were collected starting from the top and analyzed by SDS-PAGE. Cholesterol was measured using the Amplex® Red Cholesterol Assay Kit (Molecular Probes).
(§2) Cell Culture Studies. Most cell studies used HEK 293T cells that were grown in DMEM as described [Huber et al. (2001) J. Biol. Chem. 18:18]. Cholesterol-depleted cells were prepared by growing cells in DMEM with pravastatin (8 μM) for two days and then methyl-β-cyclodextrine (MBCD; 5 mM) for 30 minutes just before the experiment. […]

HeLa-Cx43 cells = test: Ca2+-FLIPR assay, histamine-induced calcium influx; format: cell-based; settings: limited cholesterol depletion, FIG. 11D
Method: Ca^2+-FLIPR Assay—HeLa-Cx43 cells were loaded with […] FLUO-4/AM and 0.04% Pluronic F-127 (both from Molecular Probes) in HBS but with 20 mM HEPES and 2.5 mM probenecid as described previously (20). After loading, cells were washed twice with HBS by an automated plate washer (Denley Cellwash, Labsystems) and transferred to the FLIPR (Molecular Devices). The FLIPR integrates an argon laser excitation source, a 96-well pipettor, and a detection system utilizing a CCD imaging camera. […] of 3× histamine concentrations were delivered within 2 seconds simultaneously to all of the wells containing […] of HBS. Fluorescence emissions from the 96-wells were monitored simultaneously at an emission wavelength of 515 nm after excitation with 488 nm (F488). Fluorescence data were collected at 0.25 Hertz, 48 seconds before and 8 minutes after stimulation, and analyzed off-line. Histamine response amplitudes were determined from the fluorescence at 3.2 minutes (peak of calcium influx) of the solvent control-subtracted and base-line-corrected traces, and averaged over 3-4 wells of same transfectants, receiving the same stimulus. EC50 values and curves were derived from fitting the function f(x)=(a−d)/(1+(x/C)nH)+d to the data by non-linear regression with a=minimum, d=maximum, C=EC50, and nH=Hill coefficient. […]

Podocin [1] = molecular target: T1, Podocin (Mus musculus, UniProt Q91X05); test: Detergent-resistant membrane (DRM) fractionation by density gradient centrifugation; format: cell-based; settings: limited cholesterol depletion with MBCD; readdition of cholesterol, FIG. 1D
T1 construct: expressed in transfected cells; host or cells: HEK 293T
T1 sequence (Q91X05 1-385): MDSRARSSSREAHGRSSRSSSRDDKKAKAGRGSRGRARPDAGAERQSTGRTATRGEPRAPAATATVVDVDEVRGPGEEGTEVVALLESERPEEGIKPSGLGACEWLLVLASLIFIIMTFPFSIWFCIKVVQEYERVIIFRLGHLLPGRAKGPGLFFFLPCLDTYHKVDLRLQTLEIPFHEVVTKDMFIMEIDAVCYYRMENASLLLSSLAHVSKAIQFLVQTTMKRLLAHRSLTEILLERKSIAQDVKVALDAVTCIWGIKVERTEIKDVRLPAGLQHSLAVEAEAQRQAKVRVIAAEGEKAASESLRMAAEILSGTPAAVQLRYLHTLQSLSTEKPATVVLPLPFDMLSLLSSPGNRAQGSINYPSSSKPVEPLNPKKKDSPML
Method: as §1, §2

Podocin [2] = test: Multimerization by velocity gradient centrifugation; format: cell-based, mouse; settings: limited cholesterol depletion of Podocin-expressing cells, FIG. 5B
Method: PHB protein multimerization was studied by velocity gradient centrifugation and blue native gel electrophoresis [Schagger et al. (1991) Anal. Biochem. 199: 223-31]. For preparation of Podocin multimeric complexes HEK293T cells were lysed in 1 ml of Mes-buffered saline (MBS) in the presence of 1% Triton® X-100 and centrifuged for 10 minutes at 1,000×g at 4° C. After centrifugation, the supernatant was collected and SDS was added at a final concentration of 0.1% and incubated for 20 minutes on ice. Thereafter, the lysate was cleared by centrifugation for 15 minutes at 100,000×g. Four milliliters of a discontinuous sucrose gradient (40-5%) was layered on top of a 60% sucrose cushion in a Beckman ultracentrifuge tube. One milliliter of the cell lysate was adjusted with 1 ml of MBS, added on top of this gradient and subjected for centrifugation for 16 hours at 180,000×g at 4° C. in a Beckman SW-41 rotor. After centrifugation 2 ml of the supernatant were discarded and 8 fractions (500 μl each) were collected starting from the top and analyzed by SDS-PAGE.
Previously it was shown that shown that Podocin homo-oligomerizes and forms high-molecular weight complexes by homophilic interactions that require the PHB-domain [Huber et al. (2003) Hum. Mol. Genet. 12:3397-405]. MEC-2 also homo-oligomerizes (infra) as do other PHB-domain proteins [Umlauf et al. (2006) J. Biol. Chem.]. […]

## methyl-β-cyclodextrin [MBCD]
MEC-2
  MEC-2 in DRM fractions: loss of Podocin and MEC-2 from the DRM fractions
HeLa-Cx43 cells
  Podocin-dependent stimulation of Ca2+ influx: abolished
Podocin [1]
  Podocin in DRM fractions: loss of Podocin and MEC-2 from the DRM fractions
Podocin [2]
  formation of high-molecular weight complexes: did not interfere
